Consider six compounds from paper PMC11840788, “3,3′-Diindolylmethane (DIM): A Molecular Scaffold for Inhibition of WWP1 and WWP2, Members of the NEDD4 Family HECT E3 Ligases” (ACS Omega, 2025).

Structures are written as SMILES. Several values for one entry are separate records, joined by “and”; a condition that tells them apart may be missing. Identical values can stand only once.

One test addresses T1, UbcH7 (Homo sapiens, UniProt P68036).
T1 construct: GST (N, cleaved yes); made in house; host or cells: E. coli BL21 (DE3) (pGEX4T-1-UbcH7a and pGEX4T-1-hUba1, gifts of Dr Arthur L Haas's Lab)
The experiment in a line: counter auto-ubiquitination screen. It counts as biochemical. The settings on record: counter assay, GST-Uba1 and UbcH7 without E3. Here is the method: (§1) A single shot in vitro autoubiquitination assay was performed for I3C, DIM and each of the derivatives against WWP1 and WWP2 using a compound concentration of 1 mM (1% DMSO) (SI Figure S3). […] These active compounds were then subjected to a detailed dose dependency analysis leading to IC50 values. This strategy has previously been employed to screen other WWP1/WWP2 small molecule inhibitors as well as used to assess I3C inhibition toward NEDD4-1.[29],[32] In this way, compounds displaying a relative activity (RA) of less than 50% in the single shot assay were further screened for dose-dependency using a logarithmic concentration range from 10 nM to 1 mM (1% DMSO) (SI Figure S4). […] These were confirmed by counter assays to remove compounds possibly interacting with other enzymes in the assay or interfering with the assay directly (SI Table S1).
Cell lysate containing His-tagged WWP1-L34H or GST-tagged WWP2-FL proteins were incubated on either 96-well Clear Pierce glutathione or nickel-coated plates for 1 h. Reaction mixtures of either 3 ng/well GST-Uba1 and 15 ng/well UbcH7 or 10 ng/well His-Uba1 and 150 ng/well His-UbcH7 were incubated together in 25 mM Tris pH 8.0, 100 mM NaCl, 4 mM MgCl2 containing 60 ng/well FLAG-ubiquitin and 1.25 mM ATP for 40 min. A prior 1% BSA plate blocking step is required for nickel-coated plates. […] Quantification was measured by absorbance read at 450 nm. […] IC50 nonlinear regression curves were calculated in GraphPad v10.2 (Prism). […]
The plates were washed three times with PBST (and 15 mM Imidazole) between each step. Quantification was measured by absorbance read at 450 nm. […]
Relative activity (RA) was determined by comparing the autoubiquitination of the WWP ligases in the presence of each compound, i.e TMB absorbance (450 nm), to the 100 % controls (1 % DMSO only), further normalising against background absorbance using 0 % controls (no E3 loaded). […]
IC50 non-linear regression curves were calculated in GraphPad v10.2 (Prism). […]

Test [1] addresses T2, WWP1 (His-tagged WWP1-L34H) (Homo sapiens, UniProt Q9H0M0).
T2 construct: WWP1- 2,3-linker-WW3-WW4-HECT (WWP1-L34H); made in house; host or cells: E. coli BL21-CodonPlus RP (plasmid pET32a-WWP1-L34H, gift of Dr Wenyu Wen)
The experiment in a line: in vitro autoubiquitination assay (single shot and dose dependency), WWP1. It counts as biochemical. As to conditions: for inhibition of WWP1 (in words): autoubiquitination assay; for IC50: nonlinear regression of RA against log concentration, 1 mM to 10 nM, 1% DMSO; for WWP1 RA (%) relative activity: single shot, compound at 1 mM (1% DMSO), standardized to 0 and 100% controls. Here is the method:
as §1
(§2) Cell lysate containing His-tagged WWP1-L34H or GST-tagged WWP2-FL proteins were incubated on either 96-well Clear Pierce glutathione or nickel-coated plates for 1 h. Reaction mixtures of either 3 ng/well GST-Uba1 and 15 ng/well UbcH7 or 10 ng/well His-Uba1 and 150 ng/well His-UbcH7 were incubated together in 25 mM Tris pH 8.0, 100 mM NaCl, 4 mM MgCl2 containing 60 ng/well FLAG-ubiquitin and 1.25 mM ATP for 40 min. A prior 1% BSA plate blocking step is required for nickel-coated plates. After plate washing, 2 μL of the compound was added at the desired concentration (1% DMSO) followed by 18 μL of the reaction mixture. This was then incubated for 2 h with 0 and 100% controls before 100 μL of anti-FLAG M2-Peroxidase HRP (1:10,000 PBST) was added to each well and incubated for 1 h. Finally, 100 μL of 1 × TMB substrate solution (Invitrogen) was added to each well and incubated for up to 10 min until sufficient blue color change was observed. To stop the reaction, 100 μL of 1 M HCl was added. For the counter assay, 3 ng/well GST-Uba1 and 200 ng/well UbcH7 were incubated with the other reaction mixture components for 1 h before incubating onto plates for a further 1 h. All other steps were followed. The plates were washed three times with PBST (and 15 mM Imidazole) between each step. Quantification was measured by absorbance read at 450 nm. All assay optimizations were as previously reported.[32] IC50 nonlinear regression curves were calculated in GraphPad v10.2 (Prism). […]
(§3) Auto-ubiquitination Assay
(§4) Cell lysate containing His-tagged WWP1-L34H or GST-tagged WWP2-FL proteins were incubated on either 96-well Clear Pierce glutathione 2 or nickel-coated plates for 1 hour. Reaction mixtures of either 3 ng/well GST-Uba1 and 15 ng/well UbcH7 or 10 ng/well His-Uba1 and 150 ng/well His-UbcH7 were incubated together in 25 mM Tris pH 8.0, 100 mM NaCl, 4 mM MgCl2 containing 60 ng/well FLAG-ubiquitin and 1.25 mM ATP for 40 minutes. A prior 1 % BSA plate blocking step is required for nickel-coated plates. After plate washing, 2 μL of the compound was added at the desired concentration (1 % DMSO) followed by 18 μL of the reaction mixture. This was then incubated for 2 hours with 0% and 100% controls before 100 μL of anti-FLAG M2-Peroxidase HRP (1: 10,000 PBST) was added to each well and incubated for 1 hour.
(§5) Finally, 100 μL of 1 × TMB substrate solution (Invitrogen) was added to each well and […]
(§6) incubated for up to 10 minutes until sufficient blue colour change was observed. To stop the reaction, 100 μL of 1 M HCl was added. For the counter assay, 3 ng/well GST-Uba1 and 200 ng/well UbcH7 were incubated with the other reaction mixture components for 1 hour before incubating onto plates for a further 1 hour. All other steps were followed.
(§7) The plates were washed three times with PBST (and 15 mM Imidazole) between each step. Quantification was measured by absorbance read at 450 nm. All assay optimisations have been previously reported by Watt and colleagues3.
(§8) Relative activity (RA) was determined by comparing the autoubiquitination of the WWP ligases in the presence of each compound, i.e TMB absorbance (450 nm), to the […]

The target in test [2] is T3, WWP2 (GST-tagged WWP2-FL) (Homo sapiens, UniProt O00308).
T3 construct: Full- length WWP2 (WWP2-FL); made in house; host or cells: E. coli BL21-CodonPlus RP (plasmid pGEX2T-WWP2-FL, Dr Andrew Chantry's Lab)
T3 sequence (O00308 whole entry): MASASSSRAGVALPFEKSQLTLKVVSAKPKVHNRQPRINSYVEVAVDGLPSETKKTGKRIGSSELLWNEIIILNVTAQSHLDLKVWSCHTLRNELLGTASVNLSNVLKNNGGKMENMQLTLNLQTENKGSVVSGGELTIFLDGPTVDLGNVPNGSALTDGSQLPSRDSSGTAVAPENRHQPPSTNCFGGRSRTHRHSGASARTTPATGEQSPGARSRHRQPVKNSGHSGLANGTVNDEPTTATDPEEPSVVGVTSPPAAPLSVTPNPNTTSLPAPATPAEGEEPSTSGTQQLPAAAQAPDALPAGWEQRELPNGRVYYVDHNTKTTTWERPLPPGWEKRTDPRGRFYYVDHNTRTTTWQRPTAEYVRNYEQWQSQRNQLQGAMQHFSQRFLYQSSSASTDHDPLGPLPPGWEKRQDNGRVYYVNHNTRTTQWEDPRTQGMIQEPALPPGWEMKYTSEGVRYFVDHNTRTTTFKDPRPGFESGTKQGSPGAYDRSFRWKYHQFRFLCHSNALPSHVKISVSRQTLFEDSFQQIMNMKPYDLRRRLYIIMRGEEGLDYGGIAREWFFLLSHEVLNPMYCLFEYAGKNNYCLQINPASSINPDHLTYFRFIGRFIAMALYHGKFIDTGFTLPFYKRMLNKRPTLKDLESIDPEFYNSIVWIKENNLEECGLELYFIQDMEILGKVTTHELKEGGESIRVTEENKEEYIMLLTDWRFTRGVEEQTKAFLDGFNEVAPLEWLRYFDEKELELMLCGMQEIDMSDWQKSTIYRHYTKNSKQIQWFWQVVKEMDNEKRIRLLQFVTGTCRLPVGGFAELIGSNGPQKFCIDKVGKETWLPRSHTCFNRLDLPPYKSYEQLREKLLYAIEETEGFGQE
The experiment in a line: in vitro autoubiquitination assay (single shot and dose dependency), WWP2. It counts as biochemical. The settings on record: for inhibition of WWP2 (in words): autoubiquitination assay; for IC50: nonlinear regression of RA against log concentration, 1 mM to 10 nM, 1% DMSO; for WWP2 RA (%) relative activity: single shot, compound at 1 mM (1% DMSO), standardized to 0 and 100% controls. As for the experimental part:
as §1, §2, §3, §4, §5, §6, §7, §8

The next test deals with NEDD4-1. More on the design: method as in PMID 27979631. The settings on record: cited from earlier work.
On the set-up of test [3]: method as in PMID 17699787. As to conditions: cited from earlier work.
The target of another test is WWP1 (Homo sapiens, UniProt Q9H0M0). More on the design: method as in PMID 31097636, doi:10.1016/j.phytol.2023.01.002. The settings on record: cited from earlier work.
WWP1, sequence (Q9H0M0 546-922 limits assumed): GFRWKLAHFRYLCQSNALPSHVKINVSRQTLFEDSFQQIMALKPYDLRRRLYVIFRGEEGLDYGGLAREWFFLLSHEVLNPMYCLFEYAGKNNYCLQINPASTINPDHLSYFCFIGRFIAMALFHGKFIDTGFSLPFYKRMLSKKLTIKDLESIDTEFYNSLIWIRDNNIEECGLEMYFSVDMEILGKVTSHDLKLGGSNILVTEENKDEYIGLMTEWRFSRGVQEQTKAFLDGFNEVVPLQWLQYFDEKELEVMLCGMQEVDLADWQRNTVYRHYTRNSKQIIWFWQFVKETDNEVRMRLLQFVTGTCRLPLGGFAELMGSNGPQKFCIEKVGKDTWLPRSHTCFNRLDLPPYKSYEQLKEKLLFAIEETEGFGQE

T1 sequence (P68036 whole entry): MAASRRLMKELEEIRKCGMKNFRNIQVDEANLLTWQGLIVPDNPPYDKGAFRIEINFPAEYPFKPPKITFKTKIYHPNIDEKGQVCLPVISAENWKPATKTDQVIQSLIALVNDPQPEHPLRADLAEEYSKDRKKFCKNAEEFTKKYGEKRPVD
T2 sequence (Q9H0M0 415-922, stated change not applied): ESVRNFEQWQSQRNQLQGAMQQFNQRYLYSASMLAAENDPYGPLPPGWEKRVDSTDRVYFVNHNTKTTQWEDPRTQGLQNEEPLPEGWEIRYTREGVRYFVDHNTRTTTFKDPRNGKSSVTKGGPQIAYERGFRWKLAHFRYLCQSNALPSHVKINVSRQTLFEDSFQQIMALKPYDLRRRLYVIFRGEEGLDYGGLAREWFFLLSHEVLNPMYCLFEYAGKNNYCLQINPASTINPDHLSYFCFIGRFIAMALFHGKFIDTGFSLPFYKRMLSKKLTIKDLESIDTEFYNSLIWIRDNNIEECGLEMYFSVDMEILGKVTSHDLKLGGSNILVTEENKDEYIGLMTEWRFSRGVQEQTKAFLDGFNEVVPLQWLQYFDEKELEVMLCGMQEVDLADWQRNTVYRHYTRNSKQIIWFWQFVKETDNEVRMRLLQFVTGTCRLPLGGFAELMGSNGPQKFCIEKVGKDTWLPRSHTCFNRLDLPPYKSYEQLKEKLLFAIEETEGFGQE

With `Cc1ccc(S(=O)(=O)n2cc(CO)c3ccccc32)cc1` [Compound 15, N-(4-methylbenzenesulfonyl)indole-3-carbinol], the “UbcH7 Activity (%)” value at UbcH7 is given as 86.3 ± 1.8%. In test [1], the “inhibition of WWP1 (in words)” value is given as “displayed inhibition”, inhibition was half-maximal at 218 µM (IC50) and the “WWP1 RA (%) relative activity” value is recorded as 11.4%. In test [2], the “inhibition of WWP2 (in words)” value is on record as “displayed inhibition”, the IC50 stood at 224 µM and the “WWP2 RA (%) relative activity” value was determined as 39.2%.

On to `OCc1cn(Cc2ccccc2)c2ccccc12` [Compound 13, N-benzylindole-3-carbinol], for which, in test [1], the “inhibition of WWP1 (in words)” value is listed as “no evidence of inhibition” and the “WWP1 RA (%) relative activity” value stood at 105.9%. In test [2], the “inhibition of WWP2 (in words)” value is “no evidence of inhibition” and the “WWP2 RA (%) relative activity” value is on record as 97.6%. In the test on NEDD4-1, the IC50 was 12.3 µM.

With `O=[N+]([O-])c1cc(S(=O)(=O)n2cc(CO)c3ccccc32)ccc1Cl` [OSU-A9], the “increase in antiproliferative properties relative to I3C” value in test [3] is reported as 100 fold.

As for `O=S(=O)(c1ccc(C(F)(F)F)cc1)n1cc(CO)c2ccccc21` [Compound 16, N-(4-trifluoromethylbenzenesulfonyl)indole-3-carbinol], on UbcH7, the “UbcH7 Activity (%)” value amounted to 79.7 ± 1.5%. Also, in test [1], the “inhibition of WWP1 (in words)” value is “displayed inhibition”, the IC50 came to 799 µM and the “WWP1 RA (%) relative activity” value was found to be 22.5%. For the same compound, in test [2], the “inhibition of WWP2 (in words)” value is listed as “displayed inhibition”, the IC50 was found to be 642 µM and the “WWP2 RA (%) relative activity” value came out at 30.0%.

For the compound `CCc1ccc(C=CC(=O)Nc2ccc(C(C)=O)cc2)o1` [Heclin], the IC50 on WWP1 was 6.9 µM.

`c1ccc2c(Cc3c[nH]c4ccccc34)c[nH]c2c1` [DIM, 3,3′-diindolylmethane]: the “UbcH7 Activity (%)” value on UbcH7 is 83.3 ± 2.0%. In test [1], the “inhibition of WWP1 (in words)” value is “displayed inhibition”, the IC50 was determined as 111 µM and the “WWP1 RA (%) relative activity” value was 17.2%. For the same compound, in test [2], the “WWP2 RA (%) relative activity” value was 62.2 ± 6.1% and 62.2%.

Broadly, the IC50 is the point on the concentration scale where inhibition reaches its midpoint.
